This is an account of results in patent US12630523B2, “Isoquinoline derivatives for use as antiviral and antitumour agents” (priority 2021, dated 2026).

For data set [1], the system named is Retinoblastoma Protein pRb1. Description: Western blot of SiHa (HPV+) cell extracts. The data set is classed as cell-based, human. The note with it: 10 μM, 12 and 24 hours. (In general: In western blotting, separated proteins are transferred to a membrane and probed.)
The nature of data set [2]: Pharmacokinetics of OC246 after single oral administration. Format: in vivo, female NMRI mice. To be noted: single oral 50 mg/kg. The procedure:
Pharmacokinetics were assessed for OC246 after single oral (p.o.) administration in female NMRI mice. The compound OC246 was suspended at 50 mg/kg with Lipoid S100 and Myritol 318. Oral dose was 50 mg/kg, Final Concentration 10 mg/ml and Administration Volume 5.0 ml/kg. Blood samples were taken from three mice at individual time points after 0.25, 0.5, 1, 2, 4, 6, 8, 16, and 24 hours from administration, and analyzed using HPLC and mass-spectroscopic bioanalytical methods.
obs: observed; tmax: time point at Cmax; tlast: time at last quantifiable concentration; Cmax: maximum observed concentration; Clast: last quantifiable concentration; SE: standard error; AUClast: area under the concentration-time curve (AUC) calculated with trapezoidal rule between dosing time to the last measurement time point with a conc. value above the lower limit of quantification; AUCinf(obs): AUC calculated using the trapezoidal rule from 0 hours to infinity; AUC % extrapol: percentage of AUCinf(obs) that is due to the extrapolation from tlast to infinity; Rsq: goodness of fit for the determination λz in the terminal elimination phase; λz(Lambda_z): terminal elimination rate constant (of at least three last measured concentrations); t1/2: apparent terminal elimination half-life; CLobs: observed total (systemic) body clearance; Vz_obs: apparent volume of distribution based on AUClast and λz.

The next data set has as its system SARS-CoV-2. The experiment in a line: SARS-CoV-2/Huh7-EGFP HTS antiviral Assay (96-well). The data set is classed as cell-based. The note with it: Severe acute respiratory syndrome coronavirus 2, Huh-7; sublethal dose of 10 μM, Huh7, n4.
A further data set has as its system HPV16 E7 protein. Description: Western blot of E7 steady state level in CaSki cells. The data set is classed as cell-based. The note with it: 10 μM, up to 24 hours. The procedure:
B) For cells in cell culture the following procedure for the preparation of a total cell extract is used. Freshly seeded cells are grown for 24 hours to obtain 65-75% confluency (corresponds for CaSki cells to a plating of approx. 2×10^6 cells/10 cm Ø cell culture dish). Cell culture dishes with medium are out on ice for 5 minutes.
Lysed cells are scraped off the dish and transfers to microcentrifuge tubes, followed by 2×10 sec sonication to complete cell lysis at room temperature. The samples are heated at 96° C. for 10 min and centrifuged for 5 min at 12000 g at room temperature.
Endogenous E7 proteins are rigid, tightly folded molecules and are bound only transiently onto […] membranes during protein blotting procedures, in particular employing semidry methods. Thus, for protein blotting a buffer system containing 40% (v/v) of Methanol is used. These buffers tend to be unstable and therefore freshly prepared solutions need to be used. E7 antibodies are used in TBET at pH7.8. Under these conditions western blot transfer is not complete for most other proteins. If staining of different proteins of the same gel is done, the gel is divided prior to blotting, 40% Methanol is used in the transfer buffer for E7 and a transfer buffer containing 20% Methanol is used for most of the other markers. […]

A short description of data set [3]: Pharmacokinetics of VSP034 and VSP035 after oral administration of a liposomal formulation. The data set is classed as in vivo, female Sprague-Dawley rats. To be noted: for AUC(0-inf) / Cmax / MRT inf / Tmax / half-life: female, Sprague-Dawley; for AUC(0-inf): AUC0-inf; for MRT inf: MRT0-inf. As to the method:
The pharmacokinetic parameters of VSP034 and VSP035 encapsulated as liposomal formulation were assessed after the administration of a single 100 mg/kg dose by oral gavage to 6 female Sprague-Dawley rats weighting 250 grams (+25 g). The animals were randomized into two experimental groups (Groups 1 and 2), each composed of 3 rats. Rats belonging to group 1 were administered with VSP034 and rats belonging to group 2 were administered with VSP035. Blood was collected at baseline and 15 min, 30 min, 1, 2, 4, 6, 8, and 24 hours after the oral gavage. The rats were sacrificed 24 hours after the dosing. Blood was collected at each timepoint from the caudal vein, with the exception of the last collection (24 hours), which was performed by intracardiac puncture at the moment of sacrifice under isoflurane anesthesia. The animals were weighted immediately before the dosing to assess the proper dose and carefully monitored during the experiment. They were kept in standard housing conditions, meeting the legal requirements for the correct housing of rodents for a period not exceeding the maximum experimental endpoints. Ad libitum access to water and food was allowed. […] Humane endpoints have not been reached. The pharmacokinetic analysis was performed using Microsoft Excel plug-in PK Solver. Pharmacokinetic parameters of two compounds are compared with the software GraphPad Prism ver. 8.0 by Student's t test for unpaired data. A p value <0.05 is considered statistically significant.
Analytical method: Compound analysis was performed following the bioanalytical method as in Test 13. In this study, carbamazepine was used as an internal standard.
Pharmacokinetic analysis: A pharmacokinetic analysis of VSP034 and VSP035 was performed using the Excel plug-in 2.0 PK Solver. The results have been fitted according to a non-compartmental modelling following extravascular administration. Concentration-vs-time curves for VSP034 and VSP035.
The main pharmacokinetic parameters (half-life, t1/2; time to maximum plasma concentration, Tmax; maximum plasma concentration, Cmax, AUC Extrapolated to Infinity, AUC0-inf; mean residence time, MRT; Apparent Volume of Distribution During Terminal Phase, Vz/F; and apparent oral clearance, CL/F) were calculated from the coefficients and exponents of the best-fits by using standard formulae.

The mark [4] stands for this setting: female, NMRI, mouse, blood, mean.
The mark [5] stands for this setting: rat, in vivo, po, 100 mg/kg, Mean.
[6] abbreviates: rat, in vivo, po, 100 mg/kg, Median.

The term half-life denotes how long it takes for the measured level to halve. What is called Tmax is the time from dosing to the highest level. In general, AUC(0-t) refers to exposure summed from dosing to a finite time, without extrapolation to infinity. A higher AUC(0-t) goes with more exposure. As usually defined, the Cmax is the highest concentration seen after dosing. For `Cc1ccc(CN2C(=O)c3ccccc3[C@H](C(=O)Nc3cccc(N4CCN(C)CC4)c3)[C@@H]2c2ccc(C(F)(F)F)cc2)cc1` [OC246, N-[3-(4-methylpiperazin-1-yl)phenyl]-2-[(4-methylphenyl)methyl]-1-oxo-3-[4-(trifluoromethyl)phenyl]-1,2,3,4-tetrahydroisoquinoline-4-carboxamide], the Rb protein signals result in data set [1] is “increase of Rb protein signals”. Also, the half-life in data set [2] (female, NMRI, mouse, blood) is 2.25 h. Further, in data set [2] (female, NMRI, mouse, blood, Lipoid S100 and Myritol 318, mean), the Tmax stood at 2 h. In data set [2] (setting [4]), this molecule yielded an AUC(0-t) of 11500 ng·h/mL and a Cmax of 1740 ng/mL. The AUC(0-inf) in data set [2] (female, NMRI, mouse, blood, mean, read-out: AUCinf(obs)) stood at 11500 ng·h/mL. Besides, the concentration at 24 h in data set [2] (female, NMRI, mouse, blood, mean, read-out: Clast) is 5.18 ng/mL. Also, in data set [2], the “AUC% extrapol (obs)” value is 0.146%, the CLobs amounted to 72.38 mL/min/kg, the Vz_obs stood at 14.073 L/kg and the “λz (terminal elimination rate constant)” value was found to be 0.309 h⁻¹. The same molecule showed a tlast in data set [2] (mean) of 24.00 h.
The inhibition is the relative decrease from the control value, in per cent. Read a low inhibition as a response near the control. Broadly, the MRT inf is the average time that molecules of a dose stay in the body. Turning to `CN1CCC(CN2C(=O)c3ccccc3[C@H](C(=O)Nc3cccc(N4CCN(C)CC4)c3)[C@H]2c2ccc(C(F)(F)F)cc2)CC1` [VSP035, (3S,4S)-N-[3-(4-methylpiperazin-1-yl)phenyl]-2-[(1-methylpiperidin-4-yl)methyl]-1-oxo-3-[4-(trifluoromethyl)phenyl]-1,2,3,4-tetrahydroisoquinoline-4-carboxamide], 10 µM produced 72 ± 7.7% inhibition in the data set with SARS-CoV-2. Also, in the data set with HPV16 E7 protein, the “HPV16 E7 protein level, time course” value is given as “steady decline over time”. For the same molecule, in the data set with HPV16 E7 protein (listed as Vsp035), the “HPV16 E7 protein level, time course” value is given as “stable e7 reduction”. For the same molecule, in data set [3] (setting [5]), the AUC(0-inf) was found to be 2230 ng·h/mL, the highest level (Cmax) was 246 ng/mL, the MRT inf stood at 6.83 h and the Tmax is 2.42 h. Further, in data set [3] (setting [6]), the AUC(0-inf) is 1480 ng·h/mL, the peak level (Cmax) was 277 ng/mL, the MRT inf turned out to be 6.59 h and the Tmax is 1 h. The half-life in data set [3] (rat, in vivo, po, 100 mg/kg, t1/2, Mean) was 4.43 h. Also, the half-life in data set [3] (rat, in vivo, po, 100 mg/kg, t1/2, Median) was 3.57 h. Moreover, in data set [3] (rat, in vivo, po, 100 mg/kg), the “Vz/F, Mean” value is 0.291 L/g and the “Vz/F, Median” value is given as 0.278 L/g. For the same molecule, the “condition of the rats after administration of the liposomal formulation” value in data set [3] (single 100 mg/kg oral gavage, observed 24 hours) is given as “did not show any sign of suffering or abnormal behavior”. Also, the “AUC relative to that of VSP034” value in data set [3] (single 100 mg/kg oral, significantly higher) is recorded as 4 fold.
